Test results reported in patent US10039833B2, “Drug delivery system to increase bioavailability” (OHIO STATE INNOVATION FOUNDATION, priority 2013, dated 2018).
Values after ≈ are worked out from the molar mass of the structure shown.

Test: physchem

solubility (USP biphthalate buffer, pH 3.5, aqueous buffer): 0.18 µg/mL (≈ 0.391 µM)
solubility (USP biphthalate buffer, pH 5, aqueous buffer): 0.07 µg/mL (≈ 0.152 µM)
solubility (USP chloride buffer, pH 1.2, simulated gastric fluid): 65.3 µg/mL (≈ 142 µM)
solubility (USP phosphate buffer, pH 7.4, aqueous buffer): 0.06 µg/mL (≈ 0.13 µM)
SMILES: NCC(=O)Nc1ccc(-n2nc(C(F)(F)F)cc2-c2ccc3c(ccc4ccccc43)c2)cc1 [AR-12]
